# Experimental data reported in ChEMBL document CHEMBL1201861, “Genomics of Drug Sensitity in Cancer screening data, Wellcome Trust Sanger Institute”.
# Columns and labels:
# Test in all cases: cells
# K5 = format: functional, cell-based, Homo sapiens; details: Homo sapiens, K5
# Description: SANGER: Inhibition of human K5 cell growth in a cell viability assay.
# SW 962 = format: functional, cell-based, Homo sapiens; details: Homo sapiens, SW 962;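 also: growth inhibition of human SW962 cells, read out by a cell viability assay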
# Description: SANGER: Inhibition of human SW962 cell growth in a cell viability assay.
# HT-144 = format: functional, cell-based, Homo sapiens; details: Homo sapiens, HT-144
# Description: SANGER: Inhibition of human HT-144 cell growth in a cell viability assay.
# Becker = format: functional, cell-based, Homo sapiens; details: Homo sapiens, Becker;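 also: growth inhibition of Becker cells, read out with a cell viability assay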
# Description: SANGER: Inhibition of human Becker cell growth in a cell viability assay.
# D-502MG = format: functional, cell-based, Homo sapiens; details: Homo sapiens, D-502MG
# Description: SANGER: Inhibition of human D-502MG cell growth in a cell viability assay.
# ES7 = format: functional, cell-based, Homo sapiens; details: Homo sapiens, ES7;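 also: growth inhibition of cultured human ES7 cells, read out as cell viability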
# Description: SANGER: Inhibition of human ES7 cell growth in a cell viability assay.
# LB2241-RCC = format: functional, cell-based, Homo sapiens; details: Homo sapiens, LB2241-RCC;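 also: cell viability assay measuring how strongly the cultured human renal carcinoma line is prevented from growing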
# Description: SANGER: Inhibition of human LB2241-RCC cell growth in a cell viability assay.
# KM-H2 = format: functional, cell-based, Homo sapiens; details: Homo sapiens, KM-H2;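 also: growth inhibition of KM-H2 cells, read out by a cell viability assay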
# Description: SANGER: Inhibition of human KM-H2 cell growth in a cell viability assay.
# NMC-G1 = format: functional, cell-based, Homo sapiens; details: Homo sapiens, NMC-G1;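 also: growth inhibition of the NMC-G1 cell line, measured with a cell viability read-out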
# Description: SANGER: Inhibition of human NMC-G1 cell growth in a cell viability assay.
# HL-60 = format: functional, cell-based, Homo sapiens; details: Homo sapiens, HL-60;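 also: growth inhibition of human HL-60 cells, read out with a cell viability assay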
# Description: SANGER: Inhibition of human HL-60 cell growth in a cell viability assay.
# ES1 = format: functional, cell-based, Homo sapiens; details: Homo sapiens, ES1;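 also: growth inhibition of ES1 cells, read out with a cell viability assay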
# Description: SANGER: Inhibition of human ES1 cell growth in a cell viability assay.
# GI-ME-N = format: functional, cell-based, Homo sapiens; details: Homo sapiens, GI-ME-N;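 also: growth inhibition of human GI-ME-N cells, read out with a cell viability assay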
# Description: SANGER: Inhibition of human GI-ME-N cell growth in a cell viability assay.
# JVM-3 = format: functional, cell-based, Homo sapiens; details: Homo sapiens, JVM-3;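 also: growth inhibition of human JVM-3 cells, read out with a cell viability assay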
# Description: SANGER: Inhibition of human JVM-3 cell growth in a cell viability assay.
# NCI-H209 = format: functional, cell-based, Homo sapiens; details: Homo sapiens, NCI-H209;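 also: growth inhibition of human NCI-H209 cells, measured by a cell viability assay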
# Description: SANGER: Inhibition of human NCI-H209 cell growth in a cell viability assay.
# EM-2 = format: functional, cell-based, Homo sapiens; details: Homo sapiens, EM-2;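 also: growth inhibition of EM-2 cells, read out with a cell viability assay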
# Description: SANGER: Inhibition of human EM-2 cell growth in a cell viability assay.
# SF-126 = format: functional, cell-based, Homo sapiens; details: Homo sapiens, SF-126;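 also: growth inhibition of human SF126 cells, read out with a cell viability assay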
# Description: SANGER: Inhibition of human SF126 cell growth in a cell viability assay.
# HCC1187 = format: functional, cell-based, Homo sapiens; details: Homo sapiens, HCC1187;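 also: growth inhibition of HCC1187 cells, read out with a cell viability assay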
# Description: SANGER: Inhibition of human HCC1187 cell growth in a cell viability assay.
# ES8 = format: functional, cell-based, Homo sapiens; details: Homo sapiens, ES8;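 also: growth inhibition of human ES8 cells, read out with a cell viability assay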
# Description: SANGER: Inhibition of human ES8 cell growth in a cell viability assay.
# NCI-H1650 = format: functional, cell-based, Homo sapiens; details: Homo sapiens, NCI-H1650;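 also: growth inhibition of human NCI-H1650 cells measured by a cell viability assay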
# Description: SANGER: Inhibition of human NCI-H1650 cell growth in a cell viability assay.
# CP66-MEL = format: functional, cell-based, Homo sapiens; details: Homo sapiens, CP66-MEL;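 also: growth inhibition of CP66-MEL cells determined in a cell viability assay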
# Description: SANGER: Inhibition of human CP66-MEL cell growth in a cell viability assay.
# EW-13 = format: functional, cell-based, Homo sapiens; details: Homo sapiens, EW-13;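 also: growth inhibition of EW-13 cells, read out with a cell viability assay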
# Description: SANGER: Inhibition of human EW-13 cell growth in a cell viability assay.
# NCI-H510A = format: functional, cell-based, Homo sapiens; details: Homo sapiens, NCI-H510A;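 also: growth inhibition of NCI-H510A cells, read out with a cell viability assay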
# Description: SANGER: Inhibition of human NCI-H510A cell growth in a cell viability assay.
# AM-38 = format: functional, cell-based, Homo sapiens; details: Homo sapiens, AM-38;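 also: growth inhibition of AM-38 cells of human origin, read out by a cell viability assay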
# Description: SANGER: Inhibition of human AM-38 cell growth in a cell viability assay.
# RKO = format: functional, cell-based, Homo sapiens; details: Homo sapiens, RKO;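 also: growth inhibition of human RKO cells, read out with a cell viability assay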
# Description: SANGER: Inhibition of human RKO cell growth in a cell viability assay.
# DOHH-2 = format: functional, cell-based, Homo sapiens; details: Homo sapiens, DOHH-2;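 also: growth inhibition of human DOHH-2 cells, read out with a cell viability assay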
# Description: SANGER: Inhibition of human DOHH-2 cell growth in a cell viability assay.
# NCI-H1648 = format: functional, cell-based, Homo sapiens; details: Homo sapiens, NCI-H1648;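 also: cell viability assay measuring inhibition of NCI-H1648 cell growth, from the Sanger screening data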
# Description: SANGER: Inhibition of human NCI-H1648 cell growth in a cell viability assay.
# SHP77 = format: functional, cell-based, Homo sapiens, SHP-77; details: Homo sapiens, SHP77;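 also: growth inhibition of human SHP-77 cells measured by a cell viability assay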
# Description: SANGER: Inhibition of human SHP-77 cell growth in a cell viability assay.
# LB1047-RCC = format: functional, cell-based, Homo sapiens; details: Homo sapiens, LB1047-RCC;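 also: inhibition of cell growth, determined with a cell viability assay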
# Description: SANGER: Inhibition of human LB1047-RCC cell growth in a cell viability assay.
# COLO-829 = format: functional, cell-based, Homo sapiens; details: Homo sapiens, COLO-829
# Description: SANGER: Inhibition of human COLO-829 cell growth in a cell viability assay.
# A4-Fuk = format: functional, cell-based, Homo sapiens; details: Homo sapiens, A4-Fuk;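 also: growth inhibition of A4-Fuk cells, read out by a cell viability assay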
# Description: SANGER: Inhibition of human A4-Fuk cell growth in a cell viability assay.
# HH = format: functional, cell-based, Homo sapiens; details: Homo sapiens, HH
# Description: SANGER: Inhibition of human HH cell growth in a cell viability assay.
# SK-N-DZ = format: functional, cell-based, Homo sapiens; details: Homo sapiens, SK-N-DZ;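 also: growth inhibition of the cancer cell line, read out through a viability assay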
# Description: SANGER: Inhibition of human SK-N-DZ cell growth in a cell viability assay.
# NCI-H82 = format: functional, cell-based, Homo sapiens; details: Homo sapiens, NCI-H82;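 also: growth inhibition of NCI-H82 cells, measured with a cell viability readout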
# Description: SANGER: Inhibition of human NCI-H82 cell growth in a cell viability assay.
# GR-ST = format: functional, cell-based, Homo sapiens; details: Homo sapiens, GR-ST
# Description: SANGER: Inhibition of human GR-ST cell growth in a cell viability assay.
# EW-16 = format: functional, cell-based, Homo sapiens; details: Homo sapiens, EW-16;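 also: growth inhibition of human EW-16 cells, read out as cell viability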
# Description: SANGER: Inhibition of human EW-16 cell growth in a cell viability assay.
# NB6 = format: functional, cell-based, Homo sapiens; details: Homo sapiens, NB6;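 also: growth inhibition of NB6 cells, read out by a cell viability assay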
# Description: SANGER: Inhibition of human NB6 cell growth in a cell viability assay.
# NCI-H1092 = format: functional, cell-based, Homo sapiens; details: Homo sapiens, NCI-H1092;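 also: cell growth inhibition measured with a cell viability assay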
# Description: SANGER: Inhibition of human NCI-H1092 cell growth in a cell viability assay.
# IST-SL1 = format: functional, cell-based, Homo sapiens; details: Homo sapiens, IST-SL1;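 also: growth inhibition of human IST-SL1 cells, read out with a cell viability assay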
# Description: SANGER: Inhibition of human IST-SL1 cell growth in a cell viability assay.
# TE-9 = format: functional, cell-based, Homo sapiens; details: Homo sapiens, TE-9;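 also: cell growth inhibition, measured with a cell viability readout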
# Description: SANGER: Inhibition of human TE-9 cell growth in a cell viability assay.
# EW-3 = format: functional, cell-based, Homo sapiens; details: Homo sapiens, EW-3;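 also: cell viability assay read-out, IC50 reflects inhibition of growth of the EW-3 cells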
# Description: SANGER: Inhibition of human EW-3 cell growth in a cell viability assay.
# KGN = format: functional, cell-based, Homo sapiens; details: Homo sapiens, KGN;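 also: growth inhibition of KGN cells, read out with a cell viability assay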
# Description: SANGER: Inhibition of human KGN cell growth in a cell viability assay.
# GOTO = format: functional, cell-based, Homo sapiens; details: Homo sapiens, GOTO;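 also: growth inhibition of GOTO cells, read out by a cell viability assay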
# Description: SANGER: Inhibition of human GOTO cell growth in a cell viability assay.
# A388 = format: functional, cell-based, Homo sapiens; details: Homo sapiens, A388;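 also: growth inhibition of human A388 cells, read out with a cell viability assay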
# Description: SANGER: Inhibition of human A388 cell growth in a cell viability assay.
# ALL-PO = format: functional, cell-based, Homo sapiens; details: Homo sapiens, ALL-PO;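 also: growth inhibition of ALL-PO cells, read out by a cell viability assay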
# Description: SANGER: Inhibition of human ALL-PO cell growth in a cell viability assay.
# ETK-1 = format: functional, cell-based, Homo sapiens; details: Homo sapiens, ETK-1;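 also: growth inhibition of human ETK-1 cells, read out with a cell viability assay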
# Description: SANGER: Inhibition of human ETK-1 cell growth in a cell viability assay.
# ML-2 = format: functional, cell-based, Homo sapiens; details: Homo sapiens, ML-2;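 also: growth inhibition of ML-2 cells, measured with a cell viability readout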
# Description: SANGER: Inhibition of human ML-2 cell growth in a cell viability assay.
# A498 = format: functional, cell-based, Homo sapiens; details: Homo sapiens, A498;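 also: growth inhibition of human A498 cells, read out with a cell viability assay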
# Description: SANGER: Inhibition of human A498 cell growth in a cell viability assay.
# HCE-4 = format: functional, cell-based, Homo sapiens; details: Homo sapiens, HCE-4;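 also: cell viability assay measuring inhibition of growth in the human HCE-4 cell line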
# Description: SANGER: Inhibition of human HCE-4 cell growth in a cell viability assay.
# IA-LM = format: functional, cell-based, Homo sapiens; details: Homo sapiens, IA-LM;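 also: cell viability assay measuring growth inhibition of human IA-LM cells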
# Description: SANGER: Inhibition of human IA-LM cell growth in a cell viability assay.
compound,measurement,setting,value
C#Cc1cccc(Nc2ncnc3cc(OCCOC)c(OCCOC)cc23)c1 [ERLOTINIB],IC50,K5,> 2 µM
same,IC50,SW 962,> 2 µM
same,IC50,HT-144,> 2 µM
same,IC50,Becker,> 2 µM
same,IC50,D-502MG,> 2 µM
same,IC50,ES7,> 2 µM
same,IC50,LB2241-RCC,> 2 µM
same,IC50,KM-H2,> 2 µM
same,IC50,NMC-G1,> 2 µM
same,IC50,HL-60,> 2 µM
same,IC50,ES1,> 2 µM
same,IC50,GI-ME-N,> 2 µM
same,IC50,JVM-3,> 2 µM
same,IC50,NCI-H209,> 2 µM
same,IC50,EM-2,> 2 µM
same,IC50,SF-126,> 2 µM
same,IC50,HCC1187,> 2 µM
same,IC50,ES8,> 2 µM
same,IC50,NCI-H1650,> 2 µM
same,IC50,CP66-MEL,> 2 µM
same,IC50,EW-13,> 2 µM
same,IC50,NCI-H510A,> 2 µM
same,IC50,AM-38,> 2 µM
same,IC50,RKO,> 2 µM
same,IC50,DOHH-2,> 2 µM
same,IC50,NCI-H1648,40 nM
same,IC50,SHP77,> 2 µM
same,IC50,LB1047-RCC,> 2 µM
same,IC50,COLO-829,> 2 µM
same,IC50,A4-Fuk,> 2 µM
same,IC50,HH,> 2 µM
same,IC50,SK-N-DZ,> 2 µM
same,IC50,NCI-H82,> 2 µM
same,IC50,GR-ST,> 2 µM
same,IC50,EW-16,> 2 µM
same,IC50,NB6,> 2 µM
same,IC50,NCI-H1092,> 2 µM
same,IC50,IST-SL1,> 2 µM
same,IC50,TE-9,1.23 µM
same,IC50,EW-3,> 2 µM
same,IC50,KGN,> 2 µM
same,IC50,GOTO,> 2 µM
same,IC50,A388,1.09 µM
same,IC50,ALL-PO,> 2 µM
same,IC50,ETK-1,> 2 µM
same,IC50,ML-2,> 2 µM
Nc1cccc2c1CN(C1CCC(=O)NC1=O)C2=O (stereo not drawn) [LENALIDOMIDE],IC50,K5,> 5 µM
same,IC50,SW 962,> 5 µM
same,IC50,HT-144,> 5 µM
same,IC50,Becker,> 5 µM
same,IC50,D-502MG,> 5 µM
same,IC50,ES7,> 5 µM
same,IC50,LB2241-RCC,> 5 µM
same,IC50,KM-H2,> 5 µM
same,IC50,NMC-G1,> 5 µM
same,IC50,HL-60,> 5 µM
same,IC50,ES1,> 5 µM
same,IC50,GI-ME-N,> 5 µM
same,IC50,JVM-3,> 5 µM
same,IC50,NCI-H209,> 5 µM
same,IC50,EM-2,> 5 µM
same,IC50,SF-126,> 5 µM
same,IC50,HCC1187,> 5 µM
same,IC50,ES8,> 5 µM
same,IC50,NCI-H1650,> 5 µM
same,IC50,CP66-MEL,> 5 µM
same,IC50,EW-13,> 5 µM
same,IC50,NCI-H510A,> 5 µM
same,IC50,AM-38,> 5 µM
same,IC50,A498,> 5 µM
same,IC50,RKO,> 5 µM
same,IC50,DOHH-2,> 5 µM
same,IC50,NCI-H1648,> 5000 nM
same,IC50,SHP77,> 5 µM
same,IC50,LB1047-RCC,> 5 µM
same,IC50,COLO-829,> 5 µM
same,IC50,A4-Fuk,> 5 µM
same,IC50,HH,> 5 µM
same,IC50,SK-N-DZ,> 5 µM
same,IC50,NCI-H82,> 5 µM
same,IC50,GR-ST,> 5 µM
same,IC50,HCE-4,> 5 µM
same,IC50,EW-16,> 5 µM
same,IC50,NB6,> 5 µM
same,IC50,NCI-H1092,> 5 µM
same,IC50,IA-LM,> 5 µM
same,IC50,IST-SL1,> 5 µM
same,IC50,TE-9,> 5 µM
same,IC50,EW-3,> 5 µM
same,IC50,KGN,> 5 µM
same,IC50,GOTO,> 5 µM
same,IC50,A388,> 5 µM
same,IC50,ALL-PO,> 5 µM
same,IC50,ETK-1,> 5 µM
same,IC50,ML-2,> 5 µM
CS(=O)(=O)c1ccc(C(=O)Nc2ccc(Cl)c(-c3ccccn3)c2)c(Cl)c1 [VISMODEGIB],IC50,K5,> 10 µM
same,IC50,SW 962,> 10 µM
same,IC50,HT-144,> 10 µM
same,IC50,Becker,> 10 µM
same,IC50,D-502MG,> 10 µM
same,IC50,ES7,> 10 µM
same,IC50,LB2241-RCC,> 10 µM
same,IC50,KM-H2,> 10 µM
same,IC50,NMC-G1,> 10 µM
same,IC50,HL-60,> 10 µM
same,IC50,ES1,> 10 µM
same,IC50,GI-ME-N,> 10 µM
same,IC50,JVM-3,> 10 µM
same,IC50,NCI-H209,> 10 µM
same,IC50,EM-2,> 10 µM
same,IC50,SF-126,> 10 µM
same,IC50,HCC1187,> 10 µM
same,IC50,ES8,> 10 µM
same,IC50,NCI-H1650,> 10 µM
same,IC50,CP66-MEL,> 10 µM
same,IC50,EW-13,> 10 µM
same,IC50,NCI-H510A,> 10 µM
same,IC50,AM-38,> 10 µM
same,IC50,A498,> 10 µM
same,IC50,RKO,> 10 µM
same,IC50,DOHH-2,> 10 µM
same,IC50,NCI-H1648,> 10000 nM
same,IC50,SHP77,> 10 µM
same,IC50,LB1047-RCC,> 10 µM
same,IC50,COLO-829,> 10 µM
same,IC50,A4-Fuk,> 10 µM
same,IC50,HH,> 10 µM
same,IC50,SK-N-DZ,> 10 µM
same,IC50,NCI-H82,> 10 µM
same,IC50,GR-ST,> 10 µM
same,IC50,HCE-4,> 10 µM
same,IC50,EW-16,> 10 µM
same,IC50,NB6,> 10 µM
same,IC50,NCI-H1092,> 10 µM
same,IC50,IA-LM,> 10 µM
same,IC50,IST-SL1,> 10 µM
same,IC50,TE-9,> 10 µM
same,IC50,KGN,> 10 µM
same,IC50,GOTO,> 10 µM
same,IC50,A388,> 10 µM
same,IC50,ALL-PO,> 10 µM
same,IC50,ETK-1,> 10 µM
same,IC50,ML-2,> 10 µM
